This is an account of results in patent US7816361B2, “Immuno inhibitory pyrazolone compounds” (Medigene Limited, priority 2003, dated 2010).

The first assay deals with T1, CD80-CD28 interaction (Homo sapiens, UniProt P33681).
T1 sequence (P33681 35-242 limits assumed): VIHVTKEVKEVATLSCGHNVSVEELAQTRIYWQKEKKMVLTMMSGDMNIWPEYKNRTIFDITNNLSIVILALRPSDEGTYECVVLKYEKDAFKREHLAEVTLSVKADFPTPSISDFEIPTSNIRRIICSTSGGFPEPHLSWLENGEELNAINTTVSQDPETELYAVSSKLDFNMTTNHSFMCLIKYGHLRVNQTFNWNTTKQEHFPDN
Put plainly: Homogenous Time Resolved Fluorescence (HTRF) assay, cell free. The following applies: inhibition of CD80-CD28 interaction; concentration series 100 μM-1.7 nM; 4 hours at room temperature; read-out: Activity Rating (EC50) in the HTRF assay. It counts as binding. The protocol: Homogenous Time Resolved Fluorescence Assay
The examples described above were tested in a cell free Homogenous Time Resolved Fluorescence (HTRF) assay to determine their activity as inhibitors of the CD80-CD28 interaction.
In the assay, europium and allophycocyanin (APC) are associated with CD28 and CD80 indirectly (through antibody linkers) to form a complex, which brings the europium and APC into close proximity to generate a signal. The complex comprises the following six proteins: fluorescent label 1, linker antibody 1, CD28 fusion protein, CD80 fusion protein, linker antibody 2, and fluorescent label 2. The table below describes these reagents in greater detail.
On formation of the complex, europium and APC are brought into proximity and a signal is generated.
Non-specific interaction was measured by substituting a mouse Fab fragment (C215) for the CD80 mouse Fab fragment fusion protein (1.9 μg/ml). The assay was carried out in black 384 well plates in a final volume of 30 μl. Assay buffer: 50 mM Tris-HCl, 150 mM NaCl pH7.8, containing 0.1% BSA (w/v) added just prior to use.
Compounds were added to the above reagents in a concentration series ranging between 100 μM-1.7 nM. The reaction was incubated for 4 hours at room temperature. Dual measurements were made using a Wallac Victor 1420 Multilabel Counter. First measurement: excitation 340 nm, emission 665 nm, delay 50 μs, window time 200 μs. second measurement: excitation 340 nm, emission 615 nm, delay 50 μs, window time 200 μs. Counts were automatically corrected for fluorescence crossover, quenching and background. The EC50 activities of compounds tested are recorded as: EC50: *=>10 μM, **=1-10 μM, ***=<1 μM.
On the technique in general: Time-resolved FRET reads energy transfer from a long-lived donor to a nearby acceptor.
Broadly, the EC50 is the concentration that produces a half-maximal response. Regarding `CN1C(C)(C)CC(NC(=O)c2ccc(-n3[nH]c(-c4ccno4)cc3=O)cc2)CC1(C)C` [Example 2, 4-(3-Isoxazol-5-yl-5-oxo-2,5-dihydro-pyrazol-1-yl)-N-(1,2,2,6,6-pentamethyl-piperidin-4-yl)-benzamide], the EC50 was greater than 10 µM.
As for `Cc1c(-c2ccco2)[nH]n(-c2ccc(C(=O)NC3CC(C)(C)N(C)C(C)(C)C3)cc2)c1=O` [Example 3, 4-(3-Furan-2-yl-4-methyl-5-oxo-2,5-dihydro-pyrazol-1-yl)-N-(1,2,2,6,6-pentamethyl-piperidin-4-yl)-benzamide], the concentration giving a half-maximal response (EC50) is greater than 10 µM.
For the compound `CN(C)CCCNC(=O)c1ccc(-n2[nH]c(-c3ccccc3)cc2=O)cc1` [Example 5], the half-maximal effective concentration (EC50) fell in the range of 1 to 10 µM.
With `O=C(NCCN1CCN(Cc2ccccc2)CC1)c1ccc(-n2[nH]c(-c3ccccc3)cc2=O)cc1` [Example 6], the EC50 was greater than 10 µM.
Turning to `CN1C(C)(C)CC(NC(=O)c2ccc(-n3[nH]c(-c4ccccc4)cc3=O)cc2)CC1(C)C` [Example 7], the concentration for a half-maximal effect (EC50) fell in the range of 1 to 10 µM.
The same measure, in the same setting: to `O=C(NCCCCN1CCCC1)c1ccc(-n2[nH]c(-c3ccccc3)cc2=O)cc1` [Example 8] belongs less than 1 µM; to `O=C(NCCCNC1CCCCC1)c1ccc(-n2[nH]c(-c3ccccc3)cc2=O)cc1` [Example 9], 1 to 10 µM.
On to `CN(C)CCCNC(=O)c1ccc(-n2[nH]c(-c3ccccn3)cc2=O)cc1` [Example 10], for which the concentration giving a half-maximal response (EC50) was less than 1 µM.
Take `CN(C)CCCNC(=O)c1ccc(-n2[nH]c(-c3ccco3)cc2=O)cc1` [Example 11]: the EC50 was less than 1 µM.
For `CN(C)CCCNC(=O)c1ccc(-n2[nH]c(-c3cccnc3)cc2=O)cc1` [Example 12], the half-maximal effective concentration (EC50) was in the range of 1 to 10 µM.
For `O=C(NCCCNC1CCCCC1)c1ccc(-n2[nH]c(-c3ccccn3)cc2=O)cc1` [Example 13], the concentration giving a half-maximal response (EC50) was in the range of 1 to 10 µM.
With `O=C(NCCCNC1CCCCC1)c1ccc(-n2[nH]c(-c3ccco3)cc2=O)cc1` [Example 14], the EC50 is less than 1 µM.
As to `O=C(NCCCNC1CCCCC1)c1ccc(-n2[nH]c(-c3cccnc3)cc2=O)cc1` [Example 15], the EC50 is 1 to 10 µM.
Regarding `CN1C(C)(C)CC(NC(=O)c2ccc(-n3[nH]c(-c4ccccn4)cc3=O)cc2)CC1(C)C` [Example 16], the EC50 was less than 1 µM.
For the compound `CN(C)CCCNC(=O)c1ccc(-n2[nH]c(-c3ccoc3)cc2=O)cc1` [Example 17], the EC50 lay in the range of 1 to 10 µM.
With `O=C(NCCCNC1CCCCC1)c1ccc(-n2[nH]c(-c3ccoc3)cc2=O)cc1` [Example 18], the EC50 was less than 1 µM.
Regarding `CN1C(C)(C)CC(NC(=O)c2ccc(-n3[nH]c(-c4ccco4)cc3=O)cc2)CC1(C)C` [Example 19], the EC50 was less than 1 µM.
Turning to `CN1C(C)(C)CC(NC(=O)c2ccc(-n3[nH]c(-c4ccoc4)cc3=O)cc2)CC1(C)C` [Example 20], the EC50 was in the range of 1 to 10 µM.
As to `O=C(NCCCCN1CCCC1)c1ccc(-n2[nH]c(-c3ccco3)cc2=O)cc1` [Example 21], the concentration giving a half-maximal response (EC50) lay in the range of 1 to 10 µM.
For `O=C(NCCCCN1CCCC1)c1ccc(-n2[nH]c(-c3ccoc3)cc2=O)cc1` [Example 22], the EC50 was 1 to 10 µM.
Consider `CN1C(C)(C)CC(NC(=O)c2ccc(-n3[nH]c(-c4cccnc4)cc3=O)cc2)CC1(C)C` [Example 23], for which the concentration giving a half-maximal response (EC50) was in the range of 1 to 10 µM.
As to `O=C(NCCCCN1CCCC1)c1ccc(-n2[nH]c(-c3ccccn3)cc2=O)cc1` [Example 24], the concentration giving a half-maximal response (EC50) was less than 1 µM.
On to `O=C(NCCCCN1CCCC1)c1ccc(-n2[nH]c(-c3cccnc3)cc2=O)cc1` [Example 25], for which the half-maximal effective concentration (EC50) is 1 to 10 µM.
Regarding `CN(C)CCCNC(=O)c1ccc(-n2[nH]c(-c3cccc(F)c3)cc2=O)cc1` [Example 26], the half-maximal effective concentration (EC50) is less than 1 µM.
Regarding `O=C(NCCCNC1CCCCC1)c1ccc(-n2[nH]c(-c3cccc(F)c3)cc2=O)cc1` [Example 27], the concentration for a half-maximal effect (EC50) fell in the range of 1 to 10 µM.
Still for that read-out and setting: to `CN1C(C)(C)CC(NC(=O)c2ccc(-n3[nH]c(-c4cccc(F)c4)cc3=O)cc2)CC1(C)C` [Example 28] belongs less than 1 µM; to `O=C(NCCCCN1CCCC1)c1ccc(-n2[nH]c(-c3cnccn3)cc2=O)cc1` [Example 29], 1 to 10 µM.
As for `CN(C)CCCNC(=O)c1ccc(-n2[nH]c(-c3cnccn3)cc2=O)cc1` [Example 30], the concentration for a half-maximal effect (EC50) was less than 1 µM.
Regarding `O=C(NCCCCN1CCCC1)c1ccc(-n2[nH]c(-c3cc4ccccc4o3)cc2=O)cc1` [Example 31], the EC50 was in the range of 1 to 10 µM.
On the same count and under the same terms, as for `CN(C)CCCNC(=O)c1ccc(-n2[nH]c(-c3cc4ccccc4o3)cc2=O)cc1` [Example 32], the figure is 1 to 10 µM; as for `O=C(NCCCNC1CCCCC1)c1ccc(-n2[nH]c(-c3cc4ccccc4o3)cc2=O)cc1` [Example 33], 1 to 10 µM.
With `CN1C(C)(C)CC(NC(=O)c2ccc(-n3[nH]c(-c4cc5ccccc5o4)cc3=O)cc2)CC1(C)C` [Example 34], the EC50 was 1 to 10 µM.

For the next assay, the target named is T2, Biotinylated human CD80 (hCD80-BT) (Homo sapiens, UniProt P33681).
T2 construct: biotin (biotinylation)
T2 sequence (P33681 35-242 limits assumed): T1 sequence (P33681 35-242 limits assumed)
Kind of assay: Biacore biomolecular interaction analysis (BIAcore S51). In kind it is binding. To be noted: BIAcore S51, immobilised hCD80-BT. The text has this:
Assay Protocols The Use of Biacore Biomolecular Interaction Analysis
Biotinylated human CD80 (hCD80-BT) is a recombinant soluble form of a membrane bound receptor molecule (CD80) which binds to CD28 to initiate T cell activation. The interaction between CD80 and CD28 has been extensively investigated (Collins et al., 2002). Biotinlyated human HLA-A2-tax is the recombinant soluble form of a membrane bound receptor molecule that has been used in this example as a control protein, and is not expected to interact with the compounds.
The BIAcore S51™ system was used for screening the compounds of Examples 1-4 above. A series S sensor chip CM5 was docked onto the BIAcore S51™. Streptavidin was coupled to the carboxymethyl surface using standard amine coupling. The chip surface was activated with 0.2M EDC/0.05M NHS, followed by binding of streptavidin (0.25 mg/ml in 10 mM sodium acetate pH 5.0) and saturation of unoccupied sites with […].
The BIAcore S51 sensor chip has two separate sensor spots for immobilisation of proteins. hCD80-BT was immobilised on the streptavidin-coated surface of one sensor spot until a response of approximately 3000 RU was observed. A protein to control for non-specific binding of the compound was immobilised on a second sensor spot. The control protein used for these experiments was a biotinylated, soluble form of the human HLA protein.
Dilution series of compounds (1000 nM-0.05 nM) were prepared in running buffer (10 mM, pH 7.4, 150 mM NaCl, 0.005% P20; 5% DMSO).
BIAcore S51™ was run at a flow rate of 30 μl/min using running buffer. Compounds and DMSO standard solutions for correction of data for solvent effects were injected. Data were recorded automatically and were analysed using BIAcore S51 Evaluation software.
What is called Kd is a measure of binding affinity in units of concentration. As for `CN1C(C)(C)CC(NC(=O)c2ccc(-n3[nH]c(-c4ccccc4)cc3=O)cc2)CC1(C)C` [Example 7], the Kd was less than 0.1 µM and the “off-rate on CD80” value is on record as 2×10^−2.
As for `CN(C)CCCNC(=O)c1ccc(-n2[nH]c(-c3ccco3)cc2=O)cc1` [Example 11], the Kd is less than 0.1 µM and the “off-rate on CD80” value is reported as 2×10^−2.

The next assay addresses T2, Biotinylated human CD80 (hCD80-BT).
Assay: not given
To be noted: endogenous protein ligand CD28; cited from earlier work.
On to “CD28: the endogenous protein ligand of CD80”, for which the “off-rate of CD80-CD28 interaction” value was “greater than 0.2 s^−1”.

The assay is the same for the next values; noted with them: endogenous protein ligand CD28; read-out: KD of CD80-CD28 interaction; cited from earlier work.
On to “CD28: the endogenous protein ligand of CD80”, for which the Kd was 4.75 µM.

The test system of another assay is IL-2 production by human Jurkat T cells (with Raji cells, anti-CD3). Kind of assay: Inhibition of production of interleukin-2 (IL-2) by human Jurkat T cells. It counts as cell-based. The following applies: 5 hours. The protocol:
Inhibition of Production of Interleukin-2 (IL-2) by Human Jurkat T Cells.
Human Raji cells were dispensed at a concentration of 2×10^5 cells per well in RPMI-1640 medium supplemented with 10% fetal calf serum, 1% penicillin/streptomycin, 1% glutamine (RPMI medium) in a 96-well round bottom microtitre plate. Compounds under investigation (dissolved in 100% DMSO) were diluted to eight-fold the desired final concentration in RPMI medium and added to the required final concentration for a total volume of 200 μl per well. After 20 minutes incubation at 37° C., Jurkat T cells were added at a concentration of 2×10^5 cells per well. Monoclonal antibody to CD3 (UCHT1, R&D Systems) was added to the cultures at a final concentration of 1 μg per ml, and where indicated, monoclonal antibody to CD28 (CD28.2, BD-Pharmingen) was also added at a concentration of 2.5 μg per ml. Cells were cultured at 37° C. for 5 hours, after which the plates were centrifuged and the supernatants harvested for IL-2 ELISA assay using the IL-2 Eli-pair kit (DIACLONE Research, Besancon, France) according to the manufacturers instructions.
A word on the inhibition: it is the relative decrease from the control value, in per cent. For `CN(C)CCCNC(=O)c1ccc(-n2[nH]c(-c3cccc(F)c3)cc2=O)cc1` [Example 26], the inhibition at 30 µM was found to be 52%.
